Data reported in patent US11813261B2, “HDAC inhibitors, alone or in combination with BTK inhibitors, for treating chronic lymphocytic leukemia” (ACETYLON PHARMACEUTICALS, INC., priority 2016, dated 2023).
Entries after “also recorded” stand apart in the source; their conditions may differ.

Experiments:
[1] = system: Mec1 cells; assay: IL-10 production by Mec1 cells stimulated with LPS; assay type: cell-based; details: Mec1 cells treated 24 hours
[2] = system: C57BL/6 mice adoptively transferred with euTCL1 splenocytes; assay type: in vivo; details: for expression of PD-1 and LAG-3: adoptive transfer, Compound D feed, Compound A injection, 10 weeks post adoptive transfer
Experimental: (§1) Flow cytometric analysis of peripheral blood mononuclear cells (PBMCs) was performed using fluorochrome-labeled monoclonal antibodies and the vitality dye 4′,6-diamidino-2-phenylindole. Data was acquired on an LSRII cytometer (Becton, Dickinson and Company; Franklin Lakes, NJ), and analyzed with FlowJo software (FlowJo; Ashland, Oreg). Absolute cell numbers calculated using AccuCheck Counting beads (ThermoFisher Scientific; Waltham, MA).
(§2) All animal studies involving euTCL1 and its cross with HDAC6KO were performed following established protocols that followed approved Institutional Animal Care and Use Committee (IACUC) procedures. Two mouse models of CLL were used: an Aging CLL model, and an Accelerated CLL Model.
Day 0 • Adoptive transfer of 5×10^6 euTCL1 or euTCL1/1-IDAC6KO splenocytes
Week 3-5 • Flow cytometry analysis • For analysis of disease
Week 9 • Flow cytometry analysis • For analysis of disease
Week 12 • Flow cytometry analysis • For analysis of disease • Observe for survival
Flow cytometry analysis and gating: B-cells (malignant population CD19+/CD5+/CD45R (B220)+/IgM+/Igk+; for normal B-cells CD19+/CD5−/CD45R (B220)+/IgM+/Igk−T-regs were identified as CD3+/CD4+/CD25 hi/IL-7R low. For Co-inhibitory molecule expression CD223 (LAG3), CD279 (PD-1), CD274 (PDL-1), and CD273 (PDL-2).

[3] = clinical trials, myeloma and lymphoma; cited from earlier work
[4] = system: euTCL1 (CLL model mouse); assay: Aging CLL model; assay type: in vivo
Experimental: as §1, §2
Birth • euTCL1 (CLL model mouse) and • euTCL1/HDAC6KO transgenic mice
5-7 Months • Flow cytometry analysis • For analysis of disease
9 Months • Flow cytometry analysis • For analysis of disease
12 Months • Flow cytometry analysis • For analysis of disease • Observe for survival B) Accelerated CLL Model

[5] = system: CLL; details: cited from earlier work

In the case of `O=C(CCCCCCNC(=O)c1cnc(N(c2ccccc2)c2ccccc2)nc1)NO` [Compound A, 2-(diphenylamino)-N-(7-(hydroxyamino)-7-oxoheptyl)pyrimidine-5-carboxamide], the IL-10 production [1] is given as “dose-dependent decrease”, the “expression of PD-1 and LAG-3” value [2] is given as “lower expression; also recorded: reduced” and the tolerability [3] is given as “well-tolerated”.
In the case of `O=C(NO)c1cnc(NC2(c3ccccc3)CC2)nc1` [Compound D, N-hydroxy-2-((1-phenylcyclopropyl)amino)pyrimidine-5-carboxamide], the disease burden ([4]; 9 months old/25 weeks post treatment start date, vs mice treated without Compound D) was “significantly lower disease burden”, the “expression of PD-1 and LAG-3 on T-regs” value ([4]; feed daily, flow cytometry, vs mice not treated) was “lower PD-1 and LAG-3 expression; also recorded: reduced” and the overall survival ([4]; vs mice not treated) was “more advantageous overall survival”. For the same compound, the “expression of PD-L1 on B cells” value ([2]; B cells isolated from treated mice vs non-treated animals) was “decrease”, the disease burden ([2]; adoptive transfer model) was “significantly lower disease burden” and the overall survival ([2]; adoptive transfer model) was “more advantageous overall survival”. The “expression of PD-1 and LAG-3” value [2] was “lower expression; also recorded: reduced” and the “PD-1 and LAG3 on CD4+ T-cells” value ([2]; treatment in chow, week 10 post-adoptive transfer, flow cytometry) was “normalization”.
In the case of `Nc1ccccc1NC(=O)c1ccc(CNc2nccc(-c3cccnc3)n2)cc1` [MGCD0103], the “antileukemic activity in CLL” value [5] is given as “induced antileukemic activity”.
For `CCCC(CCC)C(=O)O` [valproic acid], the “antileukemic activity in CLL” value [5] is given as “induced antileukemic activity”.
